Laboratory results reported in US20240317758A1 (Halia Therapeutics, Inc., priority 2021, published 2024).

The compounds below were run against T1, full-length recombinant human NEK7 (Homo sapiens, UniProt Q8TDX7) (assay: NEK7 enzymatic assay). Settings: recombinant human NEK7, casein substrate, radiolabelled ATP.
T1 construct: full-length recombinant human NEK7; GST (N); purchased SignalChem NO9-10G; host or cells: Sf9 insect cells (baculovirus)
Assay type: biochemical
Description: Casein substrate (from bovine milk, hydrolyzed and partially dephosphorylated mixture of α, β and κ caseins, obtained from Sigma Aldrich, catalogue #C4765, diluted in distilled water to a final concentration of 1 mg/mL) and full-length recombinant human NEK7 (expressed by baculovirus in Sf9 insect cells using a N-terminal GST tag, obtained from SignalChem, catalogue #NO9-10G, 0.1 μg/μL) were mixed in assay buffer (20 mM Hepes pH 7.5, 10 mM MgCl2, 1 mM EGTA, 0.02% Brij35, 0.02 mg/ml BSA, 0.1 mM Na3VO4, 2 mM DTT, 1% DMSO). Compounds of interest (serial 3-fold dilution in DMSO from 10 μM to 0.5 nM) or vehicle (1% DMSO) were dispensed into the kinase reaction mixture by Acoustic technology (Echo550; nanoliter range). After incubation at room temperature for 20 minutes, the kinase reaction was initiated by addition of [^33P]-ATP (specific activity 10 μCi/μl) and the mixture was incubated at room temperature for 2 hours. The reaction was then stopped by spotting the reaction mixture on strips of phosphocellulose P81 paper. Following washing, the radioactivity of the P81 paper was measured and kinase activity data were expressed as the percent remaining kinase activity in test samples compared to vehicle reactions. IC50 values and curve fits were obtained using Prism (GraphPad Software).
Casein substrate (from bovine milk, hydrolyzed and partially dephosphorylated mixture of α, β and κ caseins, obtained from Sigma Aldrich, catalogue #C4765, diluted in distilled water to a final concentration of 1 mg/mL, assay concentration 20 μM) and full-length recombinant human Nek7 (expressed by baculovirus in Sf9 insect cells using a N-terminal GST tag, obtained from SignalChem, catalogue #NO9-10G, 0.1 μg/μL, assay concentration 70 nM) were mixed in assay buffer (20 mM Hepes pH 7.5, 10 mM MgCl2, 1 mM EGTA, 0.02% Brij35, 0.02 mg/ml BSA, 0.1 mM […], 2 mM DTT, 1% DMSO). Compounds of interest (in DMSO, serial 3-fold dilution from 10 μM to 0.5 nM) or control (1% DMSO) were dispensed into the kinase reaction mixture by Acoustic technology (Echo550; nanoliter range). After incubation at room temperature for 20 minutes, the kinase reaction was initiated by addition of [^32P]-ATP (Specific activity 10 μCi/μl) and the mixture was incubated at room temperature for 2 hours. The reaction was then stopped by spotting the reaction mixture on strips of phosphocellulose P81 paper. Following washing, the radioactivity of the P81 paper was measured and kinase activity data were expressed as the percent remaining kinase activity in test samples compared to vehicle (dimethyl sulfoxide) reactions. IC50 values and curve fits were obtained using Prism (GraphPad Software).

T1 sequence (Q8TDX7 whole entry): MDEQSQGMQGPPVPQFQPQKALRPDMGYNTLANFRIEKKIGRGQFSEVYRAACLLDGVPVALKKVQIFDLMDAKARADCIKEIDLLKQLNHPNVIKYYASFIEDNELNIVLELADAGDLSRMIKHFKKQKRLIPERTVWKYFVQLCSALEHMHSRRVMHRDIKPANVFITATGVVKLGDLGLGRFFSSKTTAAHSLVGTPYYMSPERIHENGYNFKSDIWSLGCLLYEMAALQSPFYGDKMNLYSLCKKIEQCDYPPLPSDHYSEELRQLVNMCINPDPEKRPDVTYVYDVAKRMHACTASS

| SMILES | IC50 [nM] |
| --- | --- |
| CN1CC2CC1CN2Cc1ccc(NC(=O)Nc2ccc(-c3cn(C4CC4)c4ncnc(N)c34)cc2F)cc1C(F)(F)F (stereo not drawn) [Example I-64, 1-(4-(4-amino-7-cyclopropyl-7H-pyrrolo[2,3-d]pyrimidin-5-yl)-2-fluorophenyl)-3-(4-((5-methyl-2,5-diazabicyclo[2.2.1]heptan-2-yl)methyl)-3-(trifluoromethyl)phenyl)urea] | < 100 |
| CN1CC2(C1)CN(Cc1ccc(NC(=O)Nc3ccc(-c4cn(C5CC5)c5ncnc(N)c45)cc3F)cc1C(F)(F)F)C2 [Example I-7, 1-(4-(4-amino-7-cyclopropyl-7H-pyrrolo[2,3-d]pyrimidin-5-yl)-2-fluorophenyl)-3-(4-((6-methyl-2,6-diazaspiro[3.3]heptan-2-yl)methyl)-3-(trifluoromethyl)phenyl)urea] | > 2000 |
| CC1CN(C)CCN1Cc1ccc(NC(=O)Nc2ccc(-c3cn(C4CC4)c4ncnc(N)c34)cc2F)cc1C(F)(F)F (stereo not drawn) [Example I-70, 1-(4-(4-amino-7-cyclopropyl-7H-pyrrolo[2,3-d]pyrimidin-5-yl)-2-fluorophenyl)-3-(4-((2,4-dimethylpiperazin-1-yl)methyl)-3-(trifluoromethyl)phenyl)urea] | 100 to 500 |
| Nc1ncnc2c1c(-c1ccc(NC(=O)Nc3ccc(CN4CCOCC4)c(F)c3)c(F)c1)cn2C1CC1 [Example I-2, 1-(4-(4-amino-7-cyclopropyl-7H-pyrrolo[2,3-d]pyrimidin-5-yl)-2-fluorophenyl)-3-(3-fluoro-4-(morpholinomethyl)phenyl)urea] | > 2000 |
| Nc1ncnc2c1c(-c1ccc(NC(=O)Nc3ccc(CN4CCOCC4)cc3F)c(F)c1)cn2C1CC1 [Example I-1, 1-(4-(4-amino-7-cyclopropyl-7H-pyrrolo[2,3-d]pyrimidin-5-yl)-2-fluorophenyl)-3-(2-fluoro-4-(morpholinomethyl)phenyl)urea] | > 2000 |
| CN1CC2CCC(C1)N2Cc1ccc(NC(=O)Nc2ccc(-c3cn(C4CC4)c4ncnc(N)c34)cc2F)cc1C(F)(F)F [Example I-4, 1-(4-(4-amino-7-cyclopropyl-7H-pyrrolo[2,3-d]pyrimidin-5-yl)-2-fluorophenyl)-3-(4-((3-methyl-3,8-diazabicyclo[3.2.1]octan-8-yl)methyl)-3-(trifluoromethyl)phenyl)urea] | 100 to 500 |
| CN1CCN(Cc2ccc(NC(=O)Nc3ccc(-c4cn(C5CC5)c5ncnc(N)c45)cn3)cc2C(F)(F)F)CC1 [Example I-14, 1-(5-(4-amino-7-cyclopropyl-7H-pyrrolo[2,3-d]pyrimidin-5-yl)pyridin-2-yl)-3-(4-((4-methylpiperazin-1-yl)methyl)-3-(trifluoromethyl)phenyl)urea] | < 100 |
| CCN1CCN(Cc2ccc(NC(=O)Nc3ccc(-c4cn(C5CC5)c5ncnc(N)c45)cc3Cl)cc2C(F)(F)F)CC1 [Example I-55, 1-(4-(4-amino-7-cyclopropyl-7H-pyrrolo[2,3-d]pyrimidin-5-yl)-2-chlorophenyl)-3-(4-((4-ethylpiperazin-1-yl)methyl)-3-(trifluoromethyl)phenyl)urea] | 100 to 500 |
| CN1CCN(Cc2c(F)cc(NC(=O)Nc3ccc(-c4cn(C5CC5)c5ncnc(N)c45)cc3F)cc2C(F)(F)F)CC1 [Example I-12, 1-(4-(4-amino-7-cyclopropyl-7H-pyrrolo[2,3-d]pyrimidin-5-yl)-2-fluorophenyl)-3-(3-fluoro-4-((4-methylpiperazin-1-yl)methyl)-5-(trifluoromethyl)phenyl)urea] | < 100 |
| CN1C[C@@H]2CN(Cc3ccc(NC(=O)Nc4ccc(-c5cn(C6CC6)c6ncnc(N)c56)cc4F)cc3C(F)(F)F)C[C@@H]2C1 [Example I-5, 1-(4-(4-amino-7-cyclopropyl-7H-pyrrolo[2,3-d]pyrimidin-5-yl)-2-fluorophenyl)-3-(4-(((3aR,6aS)-5-methylhexahydropyrrolo[3,4-c]pyrrol-2(1H)-yl)methyl)-3-(trifluoromethyl)phenyl)urea] | 100 to 500 |
| CCN1CCN(Cc2ccc(NC(=O)Nc3ccc(-c4cn(C5CC5)c5ncnc(N)c45)cc3F)cc2C(F)(F)F)CC1 [Example I-41, 1-(4-(4-amino-7-cyclopropyl-7H-pyrrolo[2,3-d]pyrimidin-5-yl)-2-fluorophenyl)-3-(4-((4-ethylpiperazin-1-yl)methyl)-3-(trifluoromethyl)phenyl)urea] | < 100 |
| Cc1cc(NC(=O)Nc2ccc(-c3cn(C4CC4)c4ncnc(N)c34)cc2F)ccc1CN1CCN(C)CC1 [Example I-39, 1-(4-(4-amino-7-cyclopropyl-7H-pyrrolo[2,3-d]pyrimidin-5-yl)-2-fluorophenyl)-3-(3-methyl-4-((4-methylpiperazin-1-yl)methyl)phenyl)urea] | > 2000 |

The remaining lines, values ahead:

| IC50 [nM] | SMILES |
| --- | --- |
| > 2000 | Nc1ncnc2c1c(-c1ccc(NC(=O)Nc3ccc(CN4CCC(F)(F)CC4)c(C(F)(F)F)c3)c(F)c1)cn2C1CC1 [Example I-85, 1-(4-(4-amino-7-cyclopropyl-7H-pyrrolo[2,3-d]pyrimidin-5-yl)-2-fluorophenyl)-3-(4-((4,4-difluoropiperidin-1-yl)methyl)-3-(trifluoromethyl)phenyl)urea] |
| 100 to 500 | Nc1ncnc2c1c(-c1ccc(NC(=O)Nc3ccc(OC4CCN(C5COC5)CC4F)c(C(F)(F)F)c3)c(F)c1)cn2C1CC1 (single isomer, unassigned) [Example I-91, 1-(4-(4-amino-7-cyclopropyl-7H-pyrrolo[2,3-d]pyrimidin-5-yl)-2-fluorophenyl)-3-(4-((3-fluoro-1-(oxetan-3-yl)piperidin-4-yl)oxy)-3-(trifluoromethyl)phenyl)urea] |
| 100 to 500 | CN1CCC(Oc2ccc(NC(=O)Nc3ccc(-c4cn(C5CC5)c5ncnc(N)c45)cc3F)cc2C(F)(F)F)C(F)C1 (single isomer, unassigned) [Example I-89, 1-(4-(4-amino-7-cyclopropyl-7H-pyrrolo[2,3-d]pyrimidin-5-yl)-2-fluorophenyl)-3-(4-((3-fluoro-1-methylpiperidin-4-yl)oxy)-3-(trifluoromethyl)phenyl)urea] |
| < 100 | CN1CCN(Cc2ccc(NC(=O)Nc3ccc(-c4cn(CCC(=O)O)c5ncnc(N)c45)cc3F)cc2C(F)(F)F)CC1 [Example I-106, 3-(4-amino-5-(3-fluoro-4-(3-(4-((4-methylpiperazin-1-yl)methyl)-3-(trifluoromethyl)phenyl)ureido)phenyl)-7H-pyrrolo[2,3-d]pyrimidin-7-yl)propanoic acid] |
| < 100 | CN1CCN(Cc2cc(NC(=O)Nc3ccc(-c4cn(C5CC5)c5ncnc(N)c45)cc3F)cc(C(F)(F)F)c2)CC1 [Example I-93, 1-(4-(4-amino-7-cyclopropyl-7H-pyrrolo[2,3-d]pyrimidin-5-yl)-2-fluorophenyl)-3-(3-((4-methylpiperazin-1-yl)methyl)-5-(trifluoromethyl)phenyl)urea] |
| < 100 | CN1CCN(Cc2ccc(NC(=O)Nc3ccc(-c4nn(CCCCCO)c5ncnc(N)c45)cc3F)cc2C(F)(F)F)CC1 [Example I-103, 1-(4-(4-amino-1-(5-hydroxypentyl)-1H-pyrazolo[3,4-d]pyrimidin-3-yl)-2-fluorophenyl)-3-(4-((4-methylpiperazin-1-yl)methyl)-3-(trifluoromethyl)phenyl)urea] |
| 100 to 500 | Nc1ncnc2c1c(-c1ccc(NC(=O)Nc3ccc(CN4CCC(O)CC4)c(C(F)(F)F)c3)c(F)c1)cn2C1CC1 [Example I-96, 1-(4-(4-amino-7-cyclopropyl-7H-pyrrolo[2,3-d]pyrimidin-5-yl)-2-fluorophenyl)-3-(4-((4-hydroxypiperidin-1-yl)methyl)-3-(trifluoromethyl)phenyl)urea] |
| < 100 | CN1CCN(Cc2ccc(NC(=O)Nc3ccc(-c4cn(CCO)c5ncnc(N)c45)cc3F)cc2C(F)(F)F)CC1 [Example I-71, 1-(4-(4-amino-7-(2-hydroxyethyl)-7H-pyrrolo[2,3-d]pyrimidin-5-yl)-2-fluorophenyl)-3-(4-((4-methylpiperazin-1-yl)methyl)-3-(trifluoromethyl)phenyl)urea] |
| < 100 | CC(C)n1cc(-c2ccc(NC(=O)Nc3ccc(CN4CCN(C)CC4)c(C(F)(F)F)c3)c(F)c2)c2c(N)ncnc21 [Example I-105, 1-(4-(4-amino-7-isopropyl-7H-pyrrolo[2,3-d]pyrimidin-5-yl)-2-fluorophenyl)-3-(4-((4-methylpiperazin-1-yl)methyl)-3-(trifluoromethyl)phenyl)urea] |
